Source: EP0200024B1, “3-Cyano-pyridines, process for their preparation and their pharmaceutical use” (ARZNEIMITTELWERK DRESDEN GmbH, priority 1985, dated 1986)

Experiments:
[1] = system: Samenleiter von Meerschweinchen; test: Noradrenaline antagonism in vitro (noradrenaline contraction of isolated vas deferens); settings: for IC50: Cavia porcellus, compound given 1 min before submaximal noradrenaline concentration, read-out: ED₅₀-Werte (Hemmung der Noradrenalinkontraktion); for Hemmung der Noradrenalinkontraktion: result in words
Protocol: Die in Warmblüterphosphattyrode präparierten Samenleiter von Meerschweinchen (ca. 400 g Körpermasse) wurden 60 Min. im Organbad adaptiert. Anschließend wurden die Kontraktionen unter Gabe von Noradrenalin isotonisch registriert. Die 3-Cyan-2-(heteroalkyl-1-hetero)-pyridine der Formel I wurden 1 Min vor den jeweils submaximal reagierenden Noradrenalinkonzentrationen in das Organbad appliziert. […] Für die Verbindungen von Beispiel 1.2, 1.6, 1.7 und 1.8 ergaben sich beispielsweise ED₅₀-Werte von 2,2 · 10⁻⁵, 1,6 · 10⁻⁴, 2,5 · 10⁻⁴ sowie 1,3 · 10⁻⁴ mol/l.

[2] = system: Isolierter, spontanaktiver Vorhof des Meerschweinchens; test: Isolated, spontaneously active atrium (inotropy and frequency); design: species or system Meerschweinchen; settings: for EC30: Tyrode solution according to A.A. Alousi et al., 32 °C, read-out: 30%ige Steigerung der Inotropie bei Konzentrationen von; for chronotrope Wirkung / positiv inotrope Wirkung: result in words
Protocol: Für die Versuche wurden männliche Meerschweinchen mit einer Körpermasse von 400-500 g verwendet. Am isolierten, spontanaktiven Vorhof erfolgte nach einer 60 Min. währenden Adaptationszeit der Organpräparate in 32 °C temperierter carbogen-durchperlter Tyrodelösung die Untersuchung der Beeinflussung von Inotropie und Frequenz unter Einwirkung der 3-Cyan-2-(heteroalkyl-1-hetero)-pyridine der Formel I. Eine Reihe von Verbindungen zeigte eine starke und dosisabhängige positiv inotrope Wirkung. Bei Verwendung einer Tyrodelösung nach A.A. Alousi et al. [Circ. Res. 45, 666 (1979)] zeigen beispielsweise die Verbindungen von Beispiel 1.2, 1.7, 1.27, 3.3, 3.4, 3.5, 4.1 bzw. 4.3 eine 30%ige Steigerung der Inotropie bei Konzentrationen von 5,6 · 10⁻⁵, 5,4 · 10⁻⁶, 5,0 · 10⁻⁵, 5,8 · 10⁻⁵, 9,1 · 10⁻⁵, 1,6 · 10⁻⁴, 3,5 · 10⁻⁵ und 5,4 · 10⁻⁵ mol/l. Die Verbindung von Beispiel 1.27 zeigt bei einer Konzentration von 5 · 10⁻⁵ mol/l eine Abnahme der Frequenz um 15 %. Die Verbindung von Beispiel 1.8 zeigt bei Verwendung einer Tyrodelösung mit der Zusammensetzung (mmol/l): NaCl 136,9; KCl 2,7; CaCl₂ 1,8; MgCl₂ 1,0; NaHCO₃ 11,9; NaH₂PO₄ 0,4; Glucose 16,5 eine 30%ige Steigerung der Inotropie bei einer Konzentration von 1,2 · 10⁻⁴ mol/l.

[3] = system: Narkotisiertes Minischwein; test: Anaesthetised minipig i.v. (dp/dtmax, blood pressure); format: in vivo, Zwergschweinen (Mini-LEWE); settings: result in words
Description: Die Untersuchungen wurden an 6 männlichen Zwergschweinen (Mini-LEWE) mit einem durchschnittlichen Gewicht von 50 kg durchgeführt. Die Tiere wurden unter N₂O-O₂-Beatmung (3:1) und Muskelrelaxation (d-Tubocurarin) thorakotomiert. Der Blutdruck wurde in der Aorta ascendens mittels Transducer und der Druck im linken Ventrikel (LVP) mit einem Tipmanometer gemessen. Aus dem LVP-Signal wurde über ein Differenzierglied dp/dtmax ermittelt. Aus dem EKG wurde mit einem Kardiotachometer die Herzfrequenz zusammen mit anderen Signalen registriert. Das Herz-Zeit-Volumen wurde mit einem elektromagnetischen Flowmeter gemessen und über einen Integrator das Herz-Schlag-Volumen ermittelt. Einige der 3-Cyan-2-(heteroalkyl-1-hetero)-pyridine der Formel I zeigen an diesem Modell eine starke und dosisabhängige Erhöhung der Kontraktilität des Herzens (dp/dtmax) sowie teilweise eine signifikante Senkung des totalen peripheren Gesamtwiderstandes. So wurden beispielsweise unter den Verbindungen von Beispiel 1.2 und 1.7 bei einer Dosis von 2,0 · 10⁻⁶ bzw. 5,5 · 10⁻⁷ eine 50%ige Steigerung des Kontraktilitätsparameters dp/dtmax sowie bei einer Dosis von 1,1 · 10⁻⁶ bzw. 1,7 · 10⁻⁶ eine 10%ige Senkung des diastolischen Blutdruckes, der neben der beobachteten Steigerung des Herzzeitvolumens eine wesentliche Größe zur Bestimmung des totalen peripheren Gefäßwiderstandes darstellt, gefunden.

Meerschweinchen = test: Inhalative histamine bronchospasm, oral administration; format: in vivo; settings: Cavia porcellus, 1 h, 60 min before inhaled 0,1 % histamine, 10 animals per dose, read-out: ED₅₀-Werte (Schutz vor Histamin-Bronchialkonstriktionen)
Protocol: Eine, in einem Ultraschallverdampfer vernebelte 0,1 %ige Histaminlösung induziert an männlichen Meerschweinchen (Körpermasse 200-300 g) innerhalb von 2 bis 3 Min. typische Bronchialkonstriktionen. Durch orale Verabreichung geeigneter Dosen der 3-Cyan-2-(heteroalkyl-1-hetero)-pyridine der Formel I 60 Min. vor der inhalativen Histamingabe wurden die Tiere innerhalb einer festgelegten Expositionszeit vor den durch Histamin verursachten Bronchialkonstriktionen geschützt. Für die Derivate von Beispiel 1.2, 1.6, 1.7 und 1.8 ergeben sich z.B. aus je 10 Tieren pro Dosis ED₅₀-Werte von 4,3 · 10⁻⁴, 6,0 · 10⁻⁴, 3,3 · 10⁻⁴ sowie 2,5 · 10⁻⁴ mol/kg, was auf deutliche bronchodilatatorische bzw. antiallergische Wirkungen hinweist.

Langendorff-Herz = test: Langendorff heart in vitro (isolated perfused, freely beating heart; inotropy, chronotropy, coronary flow); design: species or system Meerschweinchen; settings: for EC30: molarity of solution, 0,1 ml bolus into aortic stump, giving 30 % increase of inotropy, read-out: Erhöhung der Inotropie um 30 % bei Applikation von je 0,1 ml einer ... molaren Lösung; for EC100: molarity of solution, 0,1 ml bolus, giving 100 % increase of coronary flow, read-out: Erhöhung des Koronardurchflusses um 100 % bei Applikation von je 0,1 ml einer ... molaren Lösung; for positiv chronotrope Wirkung / positiv inotrope Wirkung: result in words
Protocol: Für die Versuche wurden männliche Meerschweinchen mit einer, Körpermasse von 300-350 g eingesetzt. An isolierten, mit carbogenbegaster Tyrodelösung von 37 °C durchströmten, frei schlagenden Herzen, wurden unter konstantem Druck die Kontraktionskraft (Inotropie), die Frequenz (Chronotropie) und der Koronardurchfluß unter dem Einfluß der 3-Cyan-2-(heteroalkyl-1-hetero)-5-(pyrid-4-yl)-pyridine der Formel I untersucht. Dazu wurden jeweils 0,1 ml der entsprechend molaren Substanzlösungen als Bolus direkt in den Aortenstumpf appliziert. Die 3-Cyan-2-(heteraalkyl-1-hetera)-5-(pyrid-4-yl)-pyridine zeigten eine teilweise starke und konzentrationsabhängige positiv inotrope und koronardilatatorische Wirkung. Die positiv chronotrope Wirkung war deutlich geringer, ausgeprägt. Beispielsweise zeigen die Verbindungen der Beispiele 1.2, 1.6, 1.7 und 1.8 eine Erhöhung der Inotropie um 30 % bei Applikation von je 0,1 ml einer 3,0 · 10⁻³, 2,2 · 10⁻², 2,0 · 10⁻⁴ bzw. 1,0 · 10⁻³ molaren Lösung und eine Erhöhung des Koronardurchflusses um 100 % bei Applikation von je 0,1 ml einer 6,0 · 10⁻³, 6,5 · 10⁻², 1,1 · 10⁻² bzw. 1,3 · 10⁻² molaren Lösung. Die Verbindungen der Beispiele 2.2, 2.3 und 2.4 weisen bei Applikation von je 0,1 ml einer 10⁻² molaren Stammlösung in die Aorta eine Erhöhung der Inotropie um 51 %, 38 % und 31 % sowie eine Erhöhung des Koronardurchflusses um 59 %, 99 % bzw. 88 % auf.

SMILES | IC50 [1] [µM] | Hemmung der Noradrenalinkontraktion [1] | EC30 [2] [µM] | chronotrope Wirkung [2] | positiv inotrope Wirkung [2] | Senkung des diastolischen Blutdruckes [3] | Steigerung des Kontraktilitätsparameters dp/dtmax [3] | ED50 (Meerschweinchen) [µmol/kg] | EC30 (Langendorff-Herz) [µM] | EC100 (Langendorff-Herz) [µM] | positiv chronotrope Wirkung (Langendorff-Herz) | positiv inotrope Wirkung (Langendorff-Herz)
N#Cc1cc(-c2ccncc2)cnc1NCCO [Beispiel 1.2, 3-Cyan-2-(2-hydroxy-ethylamino)-5-(pyrid-4-yl)-pyridin] | 22 | konzentrationsabhängige Hemmung | 56 | relative geringer positiv chronotroper Aktivität | ausgeprägte und dosisabhängige positiv inotrope Wirkung | dosisabhängige signifikante Senkung | beträchtliche dosisabhängige Steigerung | 430 | 3000 | 6000 | relative geringer positiv chronotroper Aktivität | ausgeprägte und dosisabhängige positiv inotrope Wirkung
N#Cc1cc(-c2ccncc2)cnc1N1CCOCC1 [Beispiel 1.7, 3-Cyan-2-morpholino-5-(pyrid-4-yl)-pyridin] | 250 | konzentrationsabhängige Hemmung | 5.4 | relative geringer positiv chronotroper Aktivität | ausgeprägte und dosisabhängige positiv inotrope Wirkung | dosisabhängige signifikante Senkung | beträchtliche dosisabhängige Steigerung | 330 | 200 | 11000 | relative geringer positiv chronotroper Aktivität | ausgeprägte und dosisabhängige positiv inotrope Wirkung
